From patent US20070148283A1, “Compositions providing a sensation substantially similar to that provided by menthol” (Cadbury Adams USA LLC, priority 2005, published 2007) come the findings set out here.

Bounds are passed on as bounds.

The first test in a line: Amount in a composition achieving the characteristic nasal action of menthol. Format: in vivo. Particulars: amount present in a composition; equivalent amounts relative to menthol. The source says:
For purposes of achieving the characteristic “nasal action” of menthol, an equivalent amount of another compound sufficient to impart the characteristic “nasal action” of menthol is about 0.5 ppm, preferably about 1 ppm or even 2 or 3 ppm of methone, about 0.5 ppm, preferably about 1 ppm or even 2 or 3 ppm of isomethone, about 0.1 ppm, preferably about 0.2 ppm or even 0.3 or 0.5 ppm of eucalyptol, and about 10 ppm, preferably about 20 ppm or even 30 or 50 ppm of camphor. Using these relative conversions, one of ordinary skill in the art may readily substitute one or more compounds to achieve the relative “nasal action” of menthol.
For the molecule `CC1CCC(C(C)C)C(O)C1` (stereo not drawn) [menthol], the “amount sufficient to impart the characteristic nasal action of menthol” value is on record as at least 3 ppm.

In the case of `CC(C)[C@@H]1CC[C@@H](C)CC1=O` [methone, menthone], the “amount sufficient to impart the characteristic nasal action of menthol” value is “about 0.5 ppm”. On the same count and under the same terms, for `CC12CCC(CC1)C(C)(C)O2` [eucalyptol] the value was “about 0.1 ppm”; for `CC(C)[C@@H]1CC[C@H](C)CC1=O` [isomethone, isomenthone], “about 0.5 ppm”; for `CC12CCC(CC1=O)C2(C)C` (stereo not drawn) [camphor], “about 10 ppm”.

The nature of a further test: Amount in a composition achieving the characteristic cooling effect of menthol. The settings on record: amount present in a composition; equivalent amounts relative to menthol. Type of test: in vivo. The source says: For purposes of achieving the characteristic “cooling effect” of menthol, an equivalent amount of another compound sufficient to impart the characteristic “cooling effect” of menthol is about 50 ppm, preferably about 100 ppm or even 200 or 300 ppm of menthyl lactate, about 20 ppm, preferably about 40 ppm or even 50 or 75 ppm of monomenthyl succinate, and about 0.01 ppm, preferably about 0. 1 ppm or even 0.3 or 0.5 ppm of isopulegol. Using these relative conversions, one of ordinary skill in the art may readily substitute one or more compounds to achieve the relative “cooling effect” of menthol.
As to `CC1CCC(C(C)C)C(O)C1` (stereo not drawn) [menthol], the “amount sufficient to impart the characteristic cooling effect of menthol” value was at least 25 ppm. Consider `CC(C)[C@@H]1CC[C@@H](C)C[C@H]1OC(=O)CCC(=O)O` [monomenthyl succinate], for which the “amount sufficient to impart the characteristic cooling effect of menthol” value is reported as “about 20 ppm”.

`C=C(C)[C@@H]1CC[C@@H](C)C[C@H]1O` [isopulegol]: the “amount sufficient to impart the characteristic cooling effect of menthol” value is “about 0.01 ppm”.

Take `CC1CCC(C(C)C)C(OC(=O)C(C)O)C1` (stereo not drawn) [menthyl lactate]: the “amount sufficient to impart the characteristic cooling effect of menthol” value is reported as “about 50 ppm”.
